# System: cereal
# Test: Herbicidal post-emergence action with safener: container trials with cereal outdoors ('bird cage'), mefenpyr 1 day prior to herbicide application
# Assay type: in vivo
# Details: without safener
# Experimental: Seeds of monocotyledonous and dicotyledonous weed and crop plants are placed into sandy loam in wood fiber pots or in plastic pots, covered with soil and cultivated in a greenhouse, during the vegetation period also outdoors outside of the greenhouse, under good growth conditions. 2 to 3 weeks after sowing, the test plants are treated at the one- to three-leaf stage. The test compounds, formulated as wettable powders (WP) or liquid (EC), are, in various dosages at a water application rate of 300 l/ha (converted), with wetting agent (0.2 to 0.3%) added, sprayed onto the plants and the surface of the soil. […]
# If it is additionally to be tested as to whether safeners can improve the plant compatibility of test substances in the case of crop plants, the following options are used for applying the safener: • seeds of the crop plants are, before sowing, dressed with the safener substance (the amount of safener stated in percent, based on the weight of the seed) • before the application of the test substances, the crop plants are sprayed with the safener at a certain application rate per hectare (usually 1 day before the application of the test substances) • the safener is applied together with the test substance as a tank mix (the amount of safener is stated in g/ha or as a ratio, based on the herbicide). […]
compound,measurement,setting,value
CCc1cc(Cl)cc(OC)c1C1=C(O)C2(CCC(OC)C2)NC1=O (centres unmarked) [Example I-1-a-4],Summer wheat after 10 d observed (%),25 g ai/ha,25%
same,Summer wheat after 10 d observed (%),50 g ai/ha,40%
